≈ marks a conversion by molar mass, not a printed value.
What was measured:
[1] = tested on: proinflammatory cytokines, such as tumor necrosis factor (TNF) and interleukin-1 (IL-1); settings: disclosed in PCT/US99/29165; cited from earlier work
[2] = Stability of BIRB 796 in PEG 400 as function of temperature, storage atmosphere and light exposure; type: physicochemical; settings: for kobs / t90: PEG 400, C0 = 30 mg/mL; for half-life at 30 mg/mL: solution in PEG 400, PEG 400, C0 = 30 mg/mL
Procedure: The stability of BIRB 796 in PEG 400 was evaluated. An initial BIRB 796 concentration of approximately 30 mg/mL was prepared and the percent of BIRB 796 remaining in the PEG 400 solvent evaluated over an approximately two week time frame for differing conditions. The PEG 400-BIRB 796 mixture was kept under several different conditions: (1) at room temperature (about 23° C.) in ambient air in the dark; (2) at room temperature (about 23° C.) in ambient air in the light; (3) at 40° C. in ambient air; (4) at 40° C. in ambient air, the mixture being imbued with 0.1% sodium metabisulfite, an antioxidant; (5) at 60° C. in ambient air; (6) at 60° C. in an oxygen atmosphere; and (7) at 60° C. in a nitrogen atmosphere.
Rate constants were calculated using linear regression analysis of the data.

[3] = Effect of cyclodextrins on the aqueous solubility of BIRB 796; type: physicochemical; settings: for solubility: aqueous
Procedure: Complexing cyclodextrin agents were evaluated as a means to improve the solubility of BIRB 796. The solubility of BIRB 796 was evaluated as a function of the concentrations of underivatized parent β-cyclodextrin (BCD), the alkylated derivatives […]. The results of Table 1 with respect to the solubility of BIRB 796 as a function of HPBCD concentration are illustrated in FIG. 1, and the results of Table 1 with respect to the solubitlity of BIRB 796 as a function of SBECD concentration are shown in FIG. 2.

[4] = BIRB 796 binding to cyclodextrin (binding isotherm from solubility data), HPBCD; type: physicochemical
Procedure: (§1) The binding affinity for the BIRB 796 interaction with the ligands was evaluated in the following manner:
(§2) where Lt (ligand) is the total HPBCD or SBECD concentration, St is the solubility of BIRB 796 in the presence of ligand, So is the solubility in the absence of ligand, K11 is the binding constant for the 1:1 complex and K12 is the binding constant for the 1:2 complex. Upon rearrangement, these two equations simplify to the following linear equation: [formula]
(§3) A plot of [L]t vs. (StSo)/[Lt] yields the binding affinity according to the above equation.
(§4) FIG. 3 illustrates the binding analysis for the interaction between BIRB 796 and HPBCD at different concentrations. FIG. 4 illustrates the binding analysis for the interaction between BIRB 796 and SBECD at different concentrations. The binding constants were obtained through the slope and intercept values.

[5] = Solubility and/or stability of BIRB 796 in pharmaceutically-acceptable solvents; type: physicochemical; settings: 30% PEG 400, 40% PG/10% ethanol or aqueous buffer solutions at any pH
[6] = BIRB 796 binding to cyclodextrin (binding isotherm from solubility data), SBECD; type: physicochemical
Procedure: as §1, §2, §3, §4

[7] = 40° C., 0.1% sodium metabisulfite

For `Cc1ccc(-n2nc(C(C)(C)C)cc2NC(=O)Nc2ccc(OCCN3CCOCC3)c3ccccc23)cc1` [BIRB 796, 1-(5-tert-butyl-2-p-tolyl-2H-pyrazol-3-yl)-3-[4-(2-morpholin-4-yl-ethoxy)-naphthalen-1-yl]-urea], the “inhibitory activity with respect to proinflammatory cytokines” value [1] is listed as “unexpectedly significant inhibitory activity”, the kobs ([2]; 23° C., air (dark)) is listed as -0.00253 day⁻¹ and the t90 ([2]; 23° C., air (dark)) is listed as 41.5 days. It also gave a kobs ([2]; 23° C., air, light) of -0.0078 day⁻¹, a t90 ([2]; 23° C., air, light) of 13.5 days and a kobs [2, 7] of -0.0161 day⁻¹. The t90 [2, 7] was 6.52 days, the kobs ([2]; 40° C., air) was -0.0192 day⁻¹ and the t90 ([2]; 40° C., air) was 5.47 days. For the same compound, the kobs ([2]; 60° C., N2) was -0.0552 day⁻¹, the t90 ([2]; 60° C., N2) was 1.90 days and the kobs ([2]; 60° C., O2) was -0.0772 day⁻¹. It also gave a t90 ([2]; 60° C., O2) of 1.36 days, a kobs ([2]; 60° C., air) of -0.0587 day⁻¹ and a t90 ([2]; 60° C., air) of 1.79 days. The “degradation rate under constant light relative to dark” value ([2]; PEG 400, room temperature (about 23° C.), ambient air) was “approximately three-times as fast”, the “decomposition in PEG 400” value ([2]; over two weeks, 23° C.) was “significant decomposition was observed” and the half-life at 30 mg/mL ([2]; 23° C., air (dark)) was 274 days. For the same compound, the half-life at 30 mg/mL ([2]; 23° C., air, light) was 88.8 days, the half-life at 30 mg/mL [2, 7] was 43 days and the half-life at 30 mg/mL ([2]; 40° C., air) was 36.1 days. It also gave a half-life at 30 mg/mL ([2]; 60° C., N2) of 12.6 days, a half-life at 30 mg/mL ([2]; 60° C., O2) of 8.98 days and a half-life at 30 mg/mL ([2]; 60° C., air) of 11.8 days. For the same compound, the solubility ([3]; aqueous cyclodextrin solution, aqueous with cosolvent or surfactant or cyclodextrin, BCD 0.7 % w/v) was 44 µg/mL (≈ 83.4 µM), the solubility ([3]; aqueous cyclodextrin solution, aqueous with cosolvent or surfactant or cyclodextrin, BCD 1.4 % w/v) was 74 µg/mL (≈ 140 µM) and the solubility ([3]; aqueous cyclodextrin solution, aqueous with cosolvent or surfactant or cyclodextrin, BCD 2 % w/v) was 87 µg/mL (≈ 165 µM). The solubility ([3]; aqueous cyclodextrin solution, aqueous with cosolvent or surfactant or cyclodextrin, HPBCD 1 % w/v) was 24 µg/mL (≈ 45.5 µM), the solubility ([3]; aqueous cyclodextrin solution, aqueous with cosolvent or surfactant or cyclodextrin, HPBCD 2.5 % w/v) was 49 µg/mL (≈ 92.9 µM) and the solubility ([3]; aqueous cyclodextrin solution, aqueous with cosolvent or surfactant or cyclodextrin, HPBCD 5 % w/v) was 137 µg/mL (≈ 260 µM). It also gave a solubility ([3]; aqueous cyclodextrin solution, aqueous with cosolvent or surfactant or cyclodextrin, HPBCD 10 % w/v) of 233 µg/mL (≈ 442 µM), a solubility ([3]; aqueous cyclodextrin solution, aqueous with cosolvent or surfactant or cyclodextrin, HPBCD 25 % w/v) of 1540 µg/mL (≈ 2910 µM) and a solubility ([3]; aqueous cyclodextrin solution, aqueous with cosolvent or surfactant or cyclodextrin, SBECD 1 % w/v) of 21 µg/mL (≈ 39.8 µM). The solubility ([3]; aqueous cyclodextrin solution, aqueous with cosolvent or surfactant or cyclodextrin, SBECD 2.5 % w/v) was 85 µg/mL (≈ 161 µM), the solubility ([3]; aqueous cyclodextrin solution, aqueous with cosolvent or surfactant or cyclodextrin, SBECD 5 % w/v) was 156 µg/mL (≈ 296 µM) and the solubility ([3]; aqueous cyclodextrin solution, aqueous with cosolvent or surfactant or cyclodextrin, SBECD 10 % w/v) was 371 µg/mL (≈ 703 µM). It also gave a solubility ([3]; aqueous cyclodextrin solution, aqueous with cosolvent or surfactant or cyclodextrin, SBECD 25 % w/v) of 2170 µg/mL (≈ 4120 µM), a solubility ([3]; aqueous solution without cyclodextrin, SBECD 0 % w/v) of 0.5 µg/mL (≈ 0.948 µM) and a solubility ([3]; aqueous solution without cyclodextrin, no cyclodextrin (0 % w/v)) of 3.3 µg/mL (≈ 6.25 µM). The “BIRB 796 solubilized by SBECD, more than by HPBCD” value ([3]; highest cyclodextrin concentration evaluated (25% w/v)) was “approximately 40%”, the “Binding Constants K1:1” value ([4]; 1:1 complex with HPBCD) was 675 M⁻¹ and the “Binding Constants K1.2” value ([4]; 1:2 complex with HPBCD) was 17.5 M⁻¹. The solubility and/or stability [5] was “can not achieve a desirable solubility and/or stability”, the “Binding Constants K1:1” value ([6]; 1:1 complex with SBECD) was 8337 M⁻¹ and the “Binding Constants K1.2” value ([6]; 1:2 complex with SBECD) was 29.1 M⁻¹. The “binding affinity of SBECD for BIRB 796 compared with HPBCD” value ([6]; SBECD versus HPBCD, Table 2) was “approximately an order of magnitude higher binding affinity”.

From US20030068340A1, “Parenteral formulations of 1-(5-tert-butyl-2-p-tolyl-2H-pyrazol-3-yl)-3-[4-(2-morpholin-4-yl-ethoxy)-naphthalen-1-yl]-urea” (Boehringer Ingelheim Pharmaceuticals, Inc., priority 2001, published 2003)
